# Experimental data from paper PMC10641236, “Influenza A virus replication has a stronger dependency on Raf/MEK/ERK signaling pathway activity than SARS-CoV-2” (Frontiers in Cellular and Infection Microbiology, 2023).
# Read-outs that look alike come from different tables or passages of the source.
# Experiments:
# IAV RB1 = test system: IAV RB1; set-up: method as in Laure et al., 2020; conditions: IAV RB1, medium containing 0.2% BSA; ref Laure et al., 2020; cited from earlier work
# IAV Fukui = test system: IAV Fukui; set-up: method as in Laure et al., 2020; conditions: medium containing 0.2% BSA, ref Laure et al., 2020; cited from earlier work
# SARS-CoV-2 = test: Virus yield reduction assay, SARS-CoV-2 (virus titer by RT-qPCR); type: cell-based; conditions: for reduction of virus titer compared to solvent control: 5% FBS; for reduction of virus titer compared to solvent control / reduction of the virus titer: 24 h; for reduction of the virus titer: Calu-3 and Caco-2 cells
# Experimental: (§1) Calu-3 and Caco-2 cells were seeded in 24-well plates (Greiner Bio-One GmbH, Frickenhausen, Germany) and grown to 90% confluence. The cells were washed once with infection medium [IMDM supplemented with 0.2% bovine serum albumin (BSA) (Carl Roth GmbH + Co. KG, Karlsruhe, Germany) and 1% penicillin–streptomycin] prior to infection with a multiplicity of infection (MOI) of 0.01 of IAV PR8 or SARS-CoV-2 for 1 h in 200 µL of infection medium per well. Afterwards, the virus inoculum was removed completely, and the cells were washed once with infection medium and then treated with 1 mL per well of different concentrations of zapnometinib in infection medium with 1% dimethyl sulfoxide (DMSO) (Merck Millipore, Burlington, MA, USA) for 24 h at 37°C, 5% CO2. Supernatants were harvested and stored at −80°C for subsequent determination of virus titer and EC50 value. Cell lysates were prepared as described in the “Preparation of cell lysates and WES™ analysis” section for WES™ analysis.
# (§2) The viral titers of IAV and SARS-CoV-2 viruses were determined using a real-time one-step multiplex RT-qPCR method. Briefly, viral nucleic acid extraction was performed using a QIAamp Viral RNA Mini Kit (Qiagen, Venlo, Netherlands) according to the manufacturer’s instructions. A TaqMan-based RT-qPCR assay was carried out using a QuantiNova Pathogen kit (Qiagen, Venlo, Netherlands) with specific primers targeting the SARS-CoV-2 N gene (2019-CoV2-N1F: […], 2019-CoV2-N1R: […], 2019-CoV2-N1P [6FAM]: […] [BHQ1]) and M gene for IAV according to the WHO guidelines. The viral genome copies per mL (gc/mL) were determined based on a standard curve prepared with 10-fold serial dilutions of the target gene. For quality control, nuclease-free water was included in each set of extractions as a negative control to monitor any possible cross-contamination. Moreover, an artificial exogenous QuantiNova RNA internal control (Qiagen, Venlo, Netherlands) was included during the nucleic acid purification to monitor the RNA purification efficiency and the RT-PCR amplification. A Rotor-Gene Q™ Real-Time PCR detection system (Qiagen, Venlo, Netherlands) was used for amplification, and the data were analyzed using Q-Rex software (Qiagen, Venlo, Netherlands).
# (§3) For EC50 determination, a virus yield reduction assay was performed. The virus titer in the cell culture supernatant was determined and normalized to the solvent control. The EC50 value was determined using the “log(inhibitor) vs. normalized response - Variable slope” equation in GraphPad Prism version 9.4.0.
# IAV PR8 = test: Virus yield reduction assay, IAV PR8 (virus titer by RT-qPCR); type: cell-based, Influenza A virus, strain: A/Puerto Rico/8/1934 (H1N1); conditions: 0.2% BSA; for reduction of the virus titer: Calu-3 and Caco-2 cells, 24 h
# Experimental: as §1, §2, §3
structure (smiles),measurement,setting,value
"O=C(O)c1ccc(F)c(F)c1Nc1ccc(I)cc1Cl [zapnometinib, 2-(2-chloro-4-iodophenylamino)-N-3,4-difluoro benzoic acid]",EC50,IAV RB1,6.36 µM
same,EC50,IAV Fukui,4.5 µM
same,reduction of virus titer compared to solvent control,"SARS-CoV-2; 6.25 µM, Caco-2 cells",No significant reduction
same,reduction of virus titer compared to solvent control,"SARS-CoV-2; 12.5 µM, Caco-2 cells",No significant reduction
same,reduction of virus titer compared to solvent control,"SARS-CoV-2; 25 µM, Caco-2 cells",> 39%
same,reduction of the virus titer,"SARS-CoV-2; 25 µM, 0.2% BSA",≥ 50%
same,reduction of virus titer compared to solvent control,"SARS-CoV-2; 50 µM, Caco-2 cells",> 60%
same,reduction of the virus titer,"SARS-CoV-2; 50 µM, 0.2% BSA",≥ 50%
same,reduction of virus titer compared to solvent control,"SARS-CoV-2; 75 µM, Caco-2 cells",> 94%
same,reduction of the virus titer,"SARS-CoV-2; 75 µM, 0.2% BSA",> 90%
same,reduction of virus titer compared to solvent control,"SARS-CoV-2; 100 µM, Caco-2 cells",> 99%
same,reduction of the virus titer,"SARS-CoV-2; 100 µM, 0.2% BSA",> 90%
same,EC50,"SARS-CoV-2; Caco-2 cells, 0.2% BSA, MOI 0.01, 24 h, read-out: EC50 value against SARS-CoV-2 (FI)",22.9 µM
same,EC50,"SARS-CoV-2; Severe acute respiratory syndrome coronavirus 2, Caco-2, 24 h, Caco-2 cells, 0.2% BSA, MOI 0.01, 24 h, read-out: EC50 value against SARS-CoV-2 (FI)",22.9 µM
same,EC50,"SARS-CoV-2; Severe acute respiratory syndrome coronavirus 2, Caco-2, Caco-2 cells, medium containing 5% FBS, MOI 0.01, treatment 1 h post-infection, titer after 24 h, read-out: EC50 value against SARS-CoV-2",34.2 µM
same,EC50,"SARS-CoV-2; Severe acute respiratory syndrome coronavirus 2, Calu-3, 24 h, Calu-3 cells, 0.2% BSA, MOI 0.01, 24 h, read-out: EC50 value against SARS-CoV-2 (FI)",19.7 µM
same,EC50,"SARS-CoV-2; Severe acute respiratory syndrome coronavirus 2, summary for Calu-3 and Caco-2 cells, 0.2% BSA, read-out: EC50 values for SARS-CoV-2 in both cell lines",~20 µM
same,reduction of the virus titer,IAV PR8; 12.5 µM,≥ 50%
same,reduction of the virus titer,IAV PR8; 25 µM,≥ 50%
same,reduction of the virus titer,IAV PR8; 100 µM,> 90%
same,EC50,"IAV PR8; Caco-2 cells, MOI 0.01, 24 h, read-out: EC50 value against IAV PR8",5.72 µM
same,EC50,"IAV PR8; Calu-3 cells, MOI 0.01, 24 h, read-out: EC50 value against IAV PR8",7.13 µM
same,EC50,"IAV PR8; Influenza A virus, PR8, Caco-2, 24 h, Caco-2 cells, MOI 0.01, 24 h, read-out: EC50 value against IAV PR8",5.72 µM
same,EC50,"IAV PR8; Influenza A virus, PR8, Calu-3, 24 h, Calu-3 cells, MOI 0.01, 24 h, read-out: EC50 value against IAV PR8",7.13 µM
same,EC50,"IAV PR8; Influenza A virus, PR8, summary for Calu-3 and Caco-2 cells, read-out: EC50 values for IAV PR8 in both cell lines",< 10 µM
